From ChEMBL document CHEMBL3217414, “Trifluoromethyl derivatives of canonical nucleosides: synthesis and bioactivity studies” (Medchemcomm, 2013) come the findings set out here.

A value given as a limit tells only on which side of the number the result lay.

One may read the IC50 as the point on the concentration scale where inhibition reaches its midpoint.

One data set has as its system Hepatitis B virus. As to the kind of experiment: Antiviral activity against Hepatitis B virus. It is filed as functional, organism-based.
The subject of the next data set is C6. As to the kind of experiment: Cytotoxicity against rat C6 cells assessed as inhibition of cell viability after 48 hrs by MTT assay. The conditions noted are these: for IC50: C6, 48 h. Format: functional, cell-based.
The subject of another data set is DU-145. Description: Cytotoxicity against human DU145 cells assessed as inhibition of cell viability after 48 hrs by MTT assay. The settings on record: for IC50: DU-145, 48 h. Format: functional, cell-based. (Tetrazolium assays rely on reduction of a dye to a coloured formazan, in cell work by metabolically active cells.)
For a further data set, the system named is MCF7. As to the kind of experiment: Cytotoxicity against human MCF7 cells assessed as inhibition of cell viability after 48 hrs by MTT assay. Format: functional, cell-based. The settings on record: for IC50: MCF7, 48 h.
In a further data set the test system is L6. As to the kind of experiment: Cytotoxicity against rat L6 cells assessed as inhibition of cell viability after 48 hrs by MTT assay. Format: cell-based. The settings on record: for IC50: Rattus norvegicus, L6, 48 h.
The subject of another data set is HaCaT. As to the kind of experiment: Cytotoxicity against human HaCaT cells assessed as inhibition of cell viability after 48 hrs by MTT assay. It is filed as cell-based. The settings on record: for IC50: Homo sapiens, HaCaT.

Consider `Nc1ccn([C@H]2C=C(C(F)(F)F)[C@@H](CO)O2)c(=O)n1`, for which half-maximal inhibition with Hepatitis B virus (IC50) required 10 µM.
With `Nc1ccn([C@H]2C[C@H](O)[C@@H](CO)O2)c(=O)n1` [DOXECITINE], the IC50 in the data set on C6, in the data set on DU-145, in the data set on MCF7, in the data set with L6 and in the data set with HaCaT was above 250 µM in each case.
As to `Nc1ncnc2c1ncn2[C@H]1C=C(C(F)(F)F)[C@@H](CO)O1`, the IC50 in the data set on Hepatitis B virus was 5 µM.
Consider `O=c1[nH]cnc2c1ncn2[C@@H]1O[C@H](CO)[C@@H](O)[C@H]1O` [INOSINE], for which the IC50 in the data set on C6, in the data set on DU-145, in the data set on MCF7, in the data set on L6 and with HaCaT was above 250 µM each time.
On to `Nc1nc(=O)n([C@H]2C[C@H](O)[C@@H](CO)O2)cc1C(F)(F)F`, for which the IC50 with C6 came to 44 µM; with DU-145, 25 µM; with MCF7, 32 µM; with L6 it was 155 µM; in the data set with HaCaT, 140 µM.
On the same counts, the results for `Nc1ncnc2c1nc(C(F)(F)F)n2[C@H]1C[C@H](O)[C@@H](CO)O1` are 81 µM, 50 µM, 65 µM, 225 µM and 214 µM.
For the compound `Nc1nc2c(nc(C(F)(F)F)n2[C@H]2C[C@H](O)[C@@H](CO)O2)c(=O)[nH]1`, the inhibition result in the data set with C6, with DU-145 and in the data set with MCF7 was “Dose-dependent effect” throughout. For the same compound, the IC50 in the data set on C6 came out at 92 µM; with DU-145, 72 µM; with MCF7, 76 µM; in the data set with L6 it was 234 µM; in the data set on HaCaT, 210 µM. Further, the “inhibition (INH)” value in the data set with L6 (rat, l6, 48 h) is “Dose-dependent effect”; in the data set on HaCaT (human, hacat) it was “Dose-dependent effect”.
Consider `Nc1ncnc2c1ncn2[C@H]1C[C@H](O)[C@@H](CO)O1` [DEOXYADENOSINE], for which the IC50 in the data set with C6, in the data set with DU-145, in the data set with MCF7, in the data set on L6 and with HaCaT was above 250 µM throughout.
As to `O=c1[nH]cnc2c1nc(C(F)(F)F)n2[C@@H]1O[C@H](CO)[C@@H](O)[C@H]1O`, the IC50 worked out at 142 µM in the data set on C6; 131 µM in the data set with DU-145; 105 µM with MCF7; 195 µM in the data set on L6; 170 µM with HaCaT.
On the same counts, the results for `Nc1nc(O)c2ncn([C@H]3C[C@H](O)[C@@H](CO)O3)c2n1` [DEOXYGUANOSINE] are above 250 µM, above 250 µM, above 250 µM, above 250 µM and above 250 µM.
